According to patent US20120177601A1, “TREATMENT OF HEPATITIS C VIRUS INFECTIONS” (THE USA AS REPRESENTED BY THE SECRETARY OF THE DEPARTMENT …, priority 2009, published 2012):
“And” between values parts separate entries of the source, which are not always exact repeats. Equal entries are not always repeated. Structures can show the parent of a compound that is named as a salt. Where two headings read alike, the source gives them in different places.

How the values were obtained:
[1] = target: T1, HCV NS3/4A recombinant protease (UniProt O92972); assay type: biochemical
T1 construct: other: recombinant protease, 591 nm/622 nm FRET peptide, regression analysis; other: recombinant NS3/4A, Lineweaver-Burk; other: BV versus BR; effect o; fused on or other part: By knowledge of the vendor's product, the NS4A cofactor segment of the same polyprotein is fused to the N-terminus of the NS3 protease domain
T1 sequence (O92972 1027-1657): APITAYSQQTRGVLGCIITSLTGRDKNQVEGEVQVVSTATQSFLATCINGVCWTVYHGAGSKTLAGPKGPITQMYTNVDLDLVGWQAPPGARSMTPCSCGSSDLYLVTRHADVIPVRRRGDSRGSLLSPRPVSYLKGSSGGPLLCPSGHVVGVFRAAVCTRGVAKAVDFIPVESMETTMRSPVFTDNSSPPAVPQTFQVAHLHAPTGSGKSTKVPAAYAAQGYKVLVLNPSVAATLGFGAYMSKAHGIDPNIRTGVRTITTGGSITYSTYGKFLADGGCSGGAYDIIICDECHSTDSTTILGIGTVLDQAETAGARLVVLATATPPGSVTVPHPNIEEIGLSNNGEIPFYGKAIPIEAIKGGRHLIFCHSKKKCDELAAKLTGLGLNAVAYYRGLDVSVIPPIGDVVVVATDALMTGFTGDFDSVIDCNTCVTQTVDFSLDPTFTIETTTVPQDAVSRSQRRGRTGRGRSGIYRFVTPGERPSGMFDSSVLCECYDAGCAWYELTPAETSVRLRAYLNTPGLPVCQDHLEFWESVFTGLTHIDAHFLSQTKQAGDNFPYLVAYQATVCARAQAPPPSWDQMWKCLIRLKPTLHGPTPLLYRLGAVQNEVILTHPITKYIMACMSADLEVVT
Procedure: In vitro assay of HCV NS3/4A recombinant protease. Protease activity was determined fluorometrically with the SensoLyte 620 HCV Protease Assay (AnaSpec, Fremont, Calif.) using a wide wavelength excitation/emission (591 nm/622 nm respectively) fluorescence energy transfer peptide according to the manufacturer's instructions. Control incubations with BV or metabolite only were performed to eliminate or correct for autofluorescence or quenching. A competitive inhibitor of the NS3/4A protease, AnaSpec #25346, was used as positive control.

[2] = test system: HCV RNA in NS and FL replicons after BVR siRNA; assay type: cell-based; conditions: BV 20 μM or BR 100 μM overnight, both replicon lines, vs scrambled RNA
Procedure: (§1) Quantitative Real-time RT-PCR. Total RNA was extracted from cells using Trizol reagent (Invitrogen, Carlsbad, Calif.), treated with Turbo RNase free DNase (Ambion, TX), and processed as described (Zhu et al., 2008). To assess replication, the primers and probe designed by Takeuchi et al. (1999) targeting sequences located in 5′UTR (nt130-290) were employed as described for each replicon line (Blight et al., 2002; Lohmann et al., 2003). Real-time RT-PCR was performed using Taq DNA polymerase with the TaqMan Universal PCR Master Mix Protocol (Perkin Elmer Applied Biosystems, Foster City, Calif.). Quantitation was performed using the comparative cycle threshold (ΔCT) method as described previously (Abdalla et al., 2004).
Biliverdin reductase (BVR) knockdown. Biliverdin reductase (BVR) siRNA and control (scrambled) siRNA were purchased from Santa Cruz Biotechnology (sc-44650 and sc-37007). BVR knockdown was performed as described previously (Ryter et al., 2007). Efficiency of the knockdown was monitored by semiquantitative densitometry of BVR WB.

HIV-1 protease = HIV-1 protease (Human immunodeficiency virus type 1 group M subtype B, UniProt P04585); conditions: McPhee et al. 1996; cited from earlier work
[3] = unconjugated form; cited from earlier work
[4] = in vivo; cited from earlier work
[5] = test system: Huh5-15NS replicon (sub-genomic HCV RNA); test: HCV replication in nonstructural (NS) replicon cells, real-time RT-PCR (ΔCT); assay type: cell-based; conditions: for concentration showing significant antiviral activity / required to suppress HCV replication: NS replicon, 48 hr; for Relative [HCV] [ΔCT]: overnight, Huh5-15NS, control vehicle = 1.0
Text: (§2) Cell lines and cell culture. The human hepatoma cell line (Huh5-15) with replicating sub-genomic HCV RNA (Lohmann et al., 1999) was a kind gift of Dr. Volker Lohmann (Institute for Virology, Johannes-Gutenberg University, Mainz, Germany), and cultivated as described (Zhu et al., 2008). Huh7.5 cells harboring full length (Huh7.5FL) Conl replicons (Blight et al., 2002) were a kind gift of Dr. Charles Rice (Rockefeller University, New York, N.Y.). These cells were passed as recommended by their laboratory of origin (Blight et al., 2002). An infectious clone of HCV, J6/JFH, was inoculated into Huh7.5 cells and the cultures passed as previously described (Lindenbach et al., 2005). Cells were incubated with BV, BR, or FeCl2 for 24-48 h in DMEM containing 5% FBS.
as §1

[6] = test system: Huh7.5FL replicon (full length Con1); test: HCV replication in full-length (FL) replicon cells, real-time RT-PCR (ΔCT); assay type: cell-based; conditions: for concentration showing significant antiviral activity / required to suppress HCV replication: FL replicon, 48 hr; for Relative [HCV] [ΔCT]: overnight, Huh7.5FL, control vehicle = 1.0
Text: as §2, §1

[7] = test system: J6/JFH infectious HCV in Huh7.5 cells; test: J6/JFH HCV infection of Huh7.5 cells (immunostaining, HCV RNA); assay type: cell-based; conditions: BV 20-200 μM, 72 hr; HCV polyvalent sera immunoreactivity and HCV RNA
Text: as §2, with “Cells were incubated with BV, BR, or FeCl2 for 24-48 h in DMEM containing 5% FBS.” left out
Quantitative Real-time RT-PCR. Total RNA was extracted from cells using Trizol reagent (Invitrogen, Carlsbad, Calif.), treated with Turbo RNase free DNase (Ambion, TX), and processed as described (Zhu et al., 2008). […] Quantitation was performed using the comparative cycle threshold (ΔCT) method as described previously (Abdalla et al., 2004).
Immunocytochemical staining. […] Antibody binding was evaluated following labeling with anti-human secondary antibody-alkaline phosphatase conjugate and results recorded by photomicroscopy.

[8] = target: T2, endogenous NS3/4A protease from replicons (Hepatitis C virus genotype 1b, UniProt Q9WMX2); test: Endogenous NS3/4A protease assay with replicon lysates (FRET); assay type: biochemical, HCV; conditions: protease freshly prepared from replicons
T2 construct: For assays employing endogenous NS3/4A protease; expressed in transfected cells; host or cells: HCV replicon cells (Huh5-15 sub-genomic or Huh7.5FL Con1), Triton X-100 lysate
T2 sequence (Q9WMX2 1658-1711): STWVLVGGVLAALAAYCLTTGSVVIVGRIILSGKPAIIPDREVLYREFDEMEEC
T2 sequence (Q9WMX2 1027-1657): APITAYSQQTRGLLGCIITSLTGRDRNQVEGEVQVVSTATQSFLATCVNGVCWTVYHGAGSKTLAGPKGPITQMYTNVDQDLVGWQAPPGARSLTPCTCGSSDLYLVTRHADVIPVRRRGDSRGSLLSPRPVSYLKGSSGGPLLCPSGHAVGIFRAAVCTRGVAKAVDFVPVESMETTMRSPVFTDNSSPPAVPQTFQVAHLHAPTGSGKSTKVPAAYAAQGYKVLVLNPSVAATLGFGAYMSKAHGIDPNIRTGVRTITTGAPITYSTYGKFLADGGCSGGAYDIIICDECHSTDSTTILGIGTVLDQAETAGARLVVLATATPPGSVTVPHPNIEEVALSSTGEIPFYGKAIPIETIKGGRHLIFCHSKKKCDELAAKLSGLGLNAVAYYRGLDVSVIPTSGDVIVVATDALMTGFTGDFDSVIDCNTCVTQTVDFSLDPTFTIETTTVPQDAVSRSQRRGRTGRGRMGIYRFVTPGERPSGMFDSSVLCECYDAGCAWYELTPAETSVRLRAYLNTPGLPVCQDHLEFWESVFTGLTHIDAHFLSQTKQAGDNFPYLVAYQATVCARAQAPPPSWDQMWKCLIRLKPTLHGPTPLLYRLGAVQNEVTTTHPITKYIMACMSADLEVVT
Procedure: For assays employing endogenous NS3/4A protease, the high-throughput FRET assay was used with modifications (Yu et al., 20009). Replicon cells at 90% confluence were lysed in ice-cold 1.25% Triton X-100 lysis buffer (Yu et al., 20009). Serial dilutions of lysates were added in triplicate to black 96-well plates, together with designated concentrations of tetrapyrrole. The HiLyte Flur™ TR/QXL™ 610 substrate solution (AnaSpec) was prepared according to the manufacturer's instructions. The plate and substrate were incubated at 37° C. for 15 min, and then 50 μl substrate solution was added to each well. The plates were incubated at room temperature for 30 min, avoiding direct light. The fluorescence intensity was then measured as above for recombinant enzyme assays using FLUOstar Optima (BMG Lab Tech, Cary, N.C.). To ensure specificity for the NS3/4A protease, lysates of parental Huh7 and Huh7.5 cells were run in every assay and the results subtracted as background fluorescence.

[9] = test system: replicon or parental cell lines (Huh7.5); test: Cytotoxicity, MTT assay; assay type: cell-based, human; conditions: 20-200 μM BV
Procedure: Cytotoxicity assay. Cytotoxicity was assessed using the MTT assay as detailed previously (Wen et al., 2008). Cells (1×10^4 per well) were seeded in 96-well culture plates and allowed to attach overnight. […]

[10] = test system: NS5A and core protein in NS and FL replicons; test: Western blot / immunoprecipitation of HCV proteins in replicons; assay type: cell-based; conditions: for NS5A protein level (WB): both replicon lines; for NS5A protein level (WB) / core protein level (WB): 24 hr, BV 20 μM, BR 200 μM, FeCl2 100 mM as printed
Procedure: Western blot analysis. Western blots (WB) were performed as previously described using enhanced chemiluminescence for signal detection (ECLTM, Amersham) (Abdalla et al., 2005). Signal intensities were quantified using Image J software (NIH).
Immunoprecipitation of NS5A. Log-phase replicons were treated with various concentrations of BV for 48 hr, washed, lysed in cell lysis buffer (Cell Signaling Technology, Beverly, Mass.) and clarified by cold centrifugation (14,000×g for 10 min). An aliquot of supernatant containing 100 μg protein was incubated with 1 μg of HCV NS5A monoclonal antibody (Meridian Life Science, Saco, Me.) and 20 μl of rProtein G Agarose (Invitrogen, CA) overnight at 4° C. The agarose was collected by 3000×g spin, washed three times with ice-cold PBS, then dissolved in 40 μL 2× Laemmli sample buffer (Bio-Rad, CA) and assayed by WB.

[11] = test system: HCV replication in FL and NS replicons; test: BV with α-interferon, HCV replication in replicons; assay type: cell-based; conditions: 50 or 100 μM BV overnight with α-interferon
Procedure: FL (FIG. 7A) or NS (FIG. 7B) replicons were treated with indicated amounts of α-interferon alone or in the presence of 50 or 100 μM BV overnight. HCV replication was determined by real-time RT-PCR using the comparative cycle threshold (ΔCT) method. (*) p<0.01 vs. control; (#) p<0.005 vs. control.
as §1

vascular injury = conditions: rats, 50 mg/kg; cited from earlier work
LPS induced septic shock = conditions: rats, 35 mg/kg; cited from earlier work
[12] = recombinant protease, 591 nm/622 nm FRET peptide, regression analysis; read-out: IC50, inhibition of HCV NS3/4A protease

For `C=CC1=C(C)/C(=C/c2[nH]c(Cc3[nH]c(/C=C4\NC(=O)C(C)=C4C=C)c(C)c3CCC(=O)O)c(CCC(=O)O)c2C)NC1=O` [BR, Bilirubin], the IC50 ([1]; read-out: IC50, inhibition of HCV NS3/4A protease; recombinant protease, 591 nm/622 nm FRET peptide, regression analysis) is listed as greater than 300 µM, the “effect of BVR knockdown on antiviral activity (HCV RNA)” value [2] is listed as “no significant effect” and the Ki (HIV-1 protease) is listed as 0.8 µM. For the same molecule, the solubility in water [3] was “not soluble in water” and the oral bioavailability [4] was “relatively poor oral bioavailability”.

With `C=CC1=C(C)/C(=C/c2[nH]c(Cc3[nH]c(/C=C4\NC(=O)C(C)=C4C=C)c(C)c3CCC(=O)O)c(CCC(=O)O)c2C)NC1=O` [Bilirubin IXα, bilirubin-IX-α] the “concentration showing significant antiviral activity / required to suppress HCV replication” value [5] was 200 µM, the “concentration showing significant antiviral activity / required to suppress HCV replication” value [6] was 200 µM and the IC50 [1, 12] was greater than 300 µM.

`C=CC1=C(C)/C(=C/C2=NC(=C\c3[nH]c(/C=C4/NC(=O)C(C)=C4C=C)c(C)c3CCC(=O)OC)/C(CCC(=O)OC)=C2C)NC1=O` [Biliverdin dimethylester, biliverdin dimethyl ester] gave an IC50 [1, 12] greater than 300 µM.

With `C=CC1=C(C)/C(=C/C2=NC(=C\c3[nH]c(/C=C4\NC(=O)C(C)=C4C=C)c(C)c3CCC(=O)O)/C(CCC(=O)O)=C2C)NC1=O` [Biliverdin, biliverdin-IX-α hydrochloride] the “concentration showing significant antiviral activity / required to suppress HCV replication” value [5] was 20 µM, the “concentration showing significant antiviral activity / required to suppress HCV replication” value [6] was 20 µM and the “Huh7.5 cell infection with J6/JFH” value [7] was “markedly decreased”. The “difference in IC50 of BV and BR for the NS3/4a protease” value ([1]; BV versus BR) was “at least 10 fold”, the “mode of inhibition of NS3/4A protease” value ([1]; Lineweaver-Burk and secondary plots) was “both noncompetitive and competitive inhibitor activity” and the “effect of BV together with #25346 on protease activity” value ([1]; both BV and #25346 present) was “additive effect”. The IC50 ([1]; read-out: IC50, inhibition of HCV NS3/4A protease; recombinant protease, 591 nm/622 nm FRET peptide, regression analysis; listed as BV, hydrochloride) was 9.3 µM and 9 µM, the Ki ([1]; read-out: Ki (competitive), secondary plot Km/V vs [BV]; recombinant NS3/4A, Lineweaver-Burk) was 0.6 µM and the Ki ([1]; read-out: Ki′ (noncompetitive), secondary plot 1/Vap vs [BV]; recombinant NS3/4A, Lineweaver-Burk) was 1.1 µM. For the same molecule, the “inhibition of endogenous protease compared with recombinant enzyme” value [8] was “slightly higher concentrations”, the “toxicity (MTT) with FBS” value ([9]; inclusion of 3-5% FBS, data not shown) was “toxicity was eliminated” and the “toxicity (MTT)” value ([9]; serum-free culture medium, 24-48 hr) was 15%. For the same molecule, the “NS5A protein level (WB)” value [10] was “decreased NS5A”, the “core protein level (WB)” value ([10]; full-length replicons) was “reduced” and the “NS5A by WB or immunoprecipitation, concentration series” value ([10]; full-length replicons, various concentrations of BV) was “dose-dependently decreased NS5A”. For the same molecule, the “effect of BVR knockdown on antiviral activity (HCV RNA)” value [2] was “significantly enhanced”, the “effect of BV on α-interferon antiviral activity” value [11] was “clear additive effect” and the Ki (HIV-1 protease) was 1 µM. The vascular injury (vascular injury) was “prevented vascular injury”, the “LPS induced septic shock” value (LPS induced septic shock) was “protected rats against LPS induced septic shock” and the oral bioavailability [4] was “relatively poor oral bioavailability”.

With `[Cl][Fe][Cl]` [FeCl2, reference compound] the “HCV RNA” value ([6]; FeCl2 100 mM as printed, replicon line not specified, not shown) was “diminishing HCV RNA”, the “NS5A protein level (WB)” value [10] was “decreased” and the “core protein level (WB)” value ([10]; full-length replicons) was “decreased”.

`CCC1=C(C)/C(=C/c2[nH]c(Cc3[nH]c(/C=C4\NC(=O)C(C)=C4CC)c(C)c3CCC(=O)O)c(CCC(=O)O)c2C)NC1=O` [Mesobilirubin, mesobilirubin] gave an IC50 [1, 12] greater than 300 µM.

With “Bilirubin mixed isomers [Bilirubin (mixed isomers)]” the “concentration showing significant antiviral activity / required to suppress HCV replication” value [5] was 200 µM, the “concentration showing significant antiviral activity / required to suppress HCV replication” value [6] was 200 µM and the IC50 [1, 12] was greater than 300 µM.

For hemin [Heme], the “Relative [HCV] [ΔCT]” value ([5]; Heme 5 uM, mean of four) was 0.27, the “Relative [HCV] [ΔCT]” value ([5]; Heme 10 uM) was 0.09 and the “Relative [HCV] [ΔCT]” value ([5]; Heme 20 uM) was 0.03. For the same molecule, the “lowest level with apparent antiviral effect” value ([5]; hemin, replicons) was 5, the “Relative [HCV] [ΔCT]” value ([6]; Heme 5 uM) was 0.22 and the “Relative [HCV] [ΔCT]” value ([6]; Heme 10 uM) was 0.08. For the same molecule, the “Relative [HCV] [ΔCT]” value ([6]; Heme 20 uM) was 0.04 and the “lowest level with apparent antiviral effect” value ([6]; hemin, replicons) was 5.
